Values of other authors in patent US20230068267A1, “PLANT EXTRACT COMPOSITION FOR THE TREATMENT OF CARDIOVASCULAR AND METABOLIC DISEASES” (Meda Pharma S.p.A., priority 2020, published 2023).

Assays:
HMG-CoA reductase = target: T1, HMG-CoA reductase (Homo sapiens, UniProt P04035); settings: statin-like properties; Di Donna 2009
T1 sequence (P04035 1-888): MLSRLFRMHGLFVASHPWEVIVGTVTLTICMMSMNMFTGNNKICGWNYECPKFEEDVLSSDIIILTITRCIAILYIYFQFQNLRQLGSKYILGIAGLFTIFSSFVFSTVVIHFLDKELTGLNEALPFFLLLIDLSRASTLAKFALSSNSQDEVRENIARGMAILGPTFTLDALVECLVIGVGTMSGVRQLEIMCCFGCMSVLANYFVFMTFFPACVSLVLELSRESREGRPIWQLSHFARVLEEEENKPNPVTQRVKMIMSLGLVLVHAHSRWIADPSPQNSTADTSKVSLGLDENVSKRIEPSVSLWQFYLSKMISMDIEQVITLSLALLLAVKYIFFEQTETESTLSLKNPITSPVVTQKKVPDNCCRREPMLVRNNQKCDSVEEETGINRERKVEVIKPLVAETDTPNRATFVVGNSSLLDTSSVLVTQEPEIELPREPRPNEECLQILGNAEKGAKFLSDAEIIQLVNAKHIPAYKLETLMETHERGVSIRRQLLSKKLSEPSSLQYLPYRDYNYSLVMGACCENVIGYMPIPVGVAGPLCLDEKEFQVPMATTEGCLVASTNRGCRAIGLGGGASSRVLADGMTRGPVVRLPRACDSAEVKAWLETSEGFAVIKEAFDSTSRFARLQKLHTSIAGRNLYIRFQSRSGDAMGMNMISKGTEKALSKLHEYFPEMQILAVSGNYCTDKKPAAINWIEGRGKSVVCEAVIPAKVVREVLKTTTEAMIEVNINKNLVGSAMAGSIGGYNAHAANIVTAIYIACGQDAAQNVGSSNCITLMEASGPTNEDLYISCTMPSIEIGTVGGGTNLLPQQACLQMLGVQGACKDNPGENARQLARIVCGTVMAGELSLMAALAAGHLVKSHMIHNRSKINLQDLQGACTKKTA

LDL cholesterol = settings: Yu et. al. 2005

## COc1ccc([C@@H]2CC(=O)c3c(O)cc(O[C@H]4O[C@@H](COC(=O)C[C@@](C)(O)CC(=O)O)[C@H](O)[C@@H](O)[C@@H]4O[C@@H]4O[C@@H](C)[C@H](O)[C@@H](O)[C@@H]4O)cc3O2)cc1O [brutieridin]
HMG-CoA reductase
  inhibitory action upon HMG-CoA reductase: inhibitory action upon HMG-CoA reductase

## Rutin
LDL cholesterol
  inhibition of the oxidation of LDL cholesterol: inhibit the oxidation of LDL cholesterol

## C[C@@H]1O[C@@H](O[C@@H]2[C@@H](Oc3cc(O)c4c(c3)O[C@H](c3ccc(O)cc3)CC4=O)O[C@@H](COC(=O)C[C@@](C)(O)CC(=O)O)[C@H](O)[C@H]2O)[C@@H](O)[C@H](O)[C@H]1O [Melitidin]
HMG-CoA reductase
  inhibitory action upon HMG-CoA reductase: inhibitory action upon HMG-CoA reductase
